In publication PMC8742467, “Therapeutical interference with the epigenetic landscape of germ cell tumors: a comparative drug study and new mechanistical insights” (Clinical Epigenetics, 2022):
pEC50: −log10 of the molar value. Where two headings read alike, the source gives them in different places.

Key:
[1] = system: TCam-2 (SE); assay: XTT cell viability assay, TCam-2; assay type: cell-based; details: Homo sapiens; after 48 h, XTT, n = 4; read-out: EC50 colour/symbol code, SE TCam-2
Protocol: (§1) The […] (XTT) assays were performed as described previously. In summary, for GCT and fibroblast cell lines 5 × 10^3 cells (3 × 10^3 for UC, PCa and RCC cell lines) per 96-well were seeded and different drug concentrations (see Additional file 2: Fig. S2, Additional file 3: Fig. S3) or corresponding solvents were added to the cells the following day. For drug details see Additional file 12: Table S2 C. Each condition was analyzed in four technical replicates and EC50 values were calculated by GraphPad Prism v8.

[2] = system: GCT cell lines; assay: XTT cell viability assay, GCT cell lines (pre-screen / summary); assay type: cell-based, Human; details: first pre-screen, XTT; for pEC50: read-out: EC50; for EC50 / effective concentration in words: SE and EC proxies TCam-2 and 2102EP
Protocol: as §1

[3] = system: JAR (CC); assay: XTT cell viability assay, JAR; assay type: cell-based; details: Homo sapiens, after 48 h, n = 4, read-out: EC50 colour/symbol code, CC JAR
Protocol: as §1

[4] = system: 2102EP (EC); assay: XTT cell viability assay, 2102EP; assay type: cell-based; details: Homo sapiens; after 48 h, XTT, n = 4; read-out: EC50 colour/symbol code, EC 2102EP
Protocol: as §1

[5] = system: DNA methylation (5mC, 5hmC) in 2102EP cells; assay: DNA slot blot (5mC, 5hmC); assay type: cell-based, Human; details: 24 h
Protocol: Purity of DNA was verified using NanoDrop 260/280 ratio and agarose gel electrophoresis. DNA was diluted in H2O to 200 ng, 100 ng and 50 ng in 200 µl per slot. Slot-Blotter device (Carl Roth GmbH + Co KG, Karlsruhe, Germany) was assembled as according to the manual. DNA was blotted onto a positively charged nylon membrane (Carl Roth GmbH + Co KG, Karlsruhe, Germany) using vacuum application. Three identical membranes were prepared. The membranes were air-dried for 15—20 min and UV-crosslinked (20 s (s), 1200 mJ/cm^2). One membrane was stained with methylene blue (0.02% methylene blue (Merck Millipore, Darmstadt, Germany) in 0.3 M sodium acetate (pH 5.2)) to validate DNA loading across the samples. The remaining two membranes were blocked in 5% milk powder in PBST for 1 h at RT. Membranes were incubated with 5mC or 5hmC antibody overnight at 4 °C. After washing, membranes were incubated with secondary antibody for 2 h at RT. Signals were detected using the ChemiDoc Imaging Systems (Bio-Rad Laboratories, Feldkirchen, Germany).

[6] = system: histone modifications in 2102EP cells; assay: Mass spectrometry analysis of histone modifications (Mod Spec); assay type: cell-based, Human
Protocol: 2102EP cells were treated with the EC50 concentrations for Quisinostat, JIB-04, Chaetocin, MZ-1, LP99, PRT4165, GSK343 and DMSO as solvent control. The cells were harvested via trypsinization after 16 h. The mass spectrometric analysis of histone modifications was outsourced to the Mod Spec service by Active Motif (Carlsbad, CA, USA). Histone extraction and mass spectrometric analysis was performed as described previously. Raw data were transformed into z-scores as the input. The heatmap was generated in R using ‘pheatmap’ with default settings and provided by Active Motif.

[7] = system: transcriptome of 2102EP cells; assay: RNA sequencing; assay type: cell-based, Human; details: 16 h
Protocol: Transcriptome analysis has been performed as previously described at the core facility ‘Genomics & Transcriptomics’ (Prof. Dr. Karl Köhrer, Biomedical Research Center, Heinrich Heine University, Düsseldorf, Germany) and has been publicly shared via GEO (https://www.ncbi.nlm.nih.gov/geo/, GSE189472). RNA samples were quantified and measured as previously described. Statistical analyses were performed using the ‘Differential Expression in two groups’ tool (version 1.02) (Qiagen) and the resulting p values were corrected for multiple testing by false discovery rate (FDR). Accompanying PCA and heatmap were generated using Qlucore Omics Explorer 3.7 (Qlucore AB, Lund, Sweden). Values of solvent controls wereaveraged from the studies GSE189472, GSE190792 and GSE190022 [95].

[8] = system: phosphorylated kinase targets in 2102EP cells; assay: Proteome Profiler Human Phospho-Kinase Array; assay type: cell-based; details: 16 h
Protocol: For the detection of phosphorylated kinase targets, the Proteome Profiler Human Phospho-Kinase Array Kit (R&D Systems, Abingdon, UK) was used according to the manufacturer’s instructions. The ChemiDoc Imaging System (Bio-Rad Laboratories, Feldkirchen, Germany) was used for detection. 2102EP cells were harvested after 16 h of treatment with the epi-drugs. Pixel density was analyzed using Fiji ImageJ 1.53c.

[9] = 2102EP cells, Mod Spec raw data
[10] = 2102EP, EC50, 16 h, vs solvent control
[11] = sorted data log2>±1.5, FDR p<0.05

O=C(O)c1ccc(CN2CCC(CN[C@@H]3C[C@H]3c3ccccc3)CC2)cc1 [GSK2879552]
pEC50 [1]: < 4.30
pEC50 ([2]; Homo sapiens, GCT): < 4.30
pEC50 [3]: < 4.30
pEC50 [4]: < 4.30

Clc1ccc(N/N=C(\c2ccccc2)c2ccccn2)nc1 [JIB-04]
reduction in 5mC levels [5]: 27%
EC50 / effective concentration in words [2]: nanomolar range
H1.4: K25AC, % of peptide pool [6, 9]: 0.003915%
H1.4: K25ME1, % of peptide pool [6, 9]: 2.18%
H1.4: K25ME2, % of peptide pool [6, 9]: 0.06041%
H1.4: K25ME3, % of peptide pool [6, 9]: 0.002903%
H1.4: K25UN, % of peptide pool [6, 9]: 97.7528%
H2A1: K13AC, % of peptide pool [6, 9]: 0.01774%
H2A1: K13UN, % of peptide pool [6, 9]: 99.9823%
H2A1: K15AC, % of peptide pool [6, 9]: 0.006947%
H2A1: K15UB, % of peptide pool [6, 9]: 0%
H2A1: K15UN, % of peptide pool [6, 9]: 99.9931%
H2A3: K13AC, % of peptide pool [6, 9]: 0.0449%
H2A3: K13UN, % of peptide pool [6, 9]: 99.9551%
H2A3: K15AC, % of peptide pool [6, 9]: 0.04676%
H2A3: K15UB, % of peptide pool [6, 9]: 0%
H2A3: K15UN, % of peptide pool [6, 9]: 99.9532%
H2A: K5AC, % of peptide pool [6, 9]: 17.3435%
H2A: K5UN, % of peptide pool [6, 9]: 82.6565%
H2A: K9AC, % of peptide pool [6, 9]: 2.608%
H2A: K9UN, % of peptide pool [6, 9]: 97.3916%
H2A: K36AC, % of peptide pool [6, 9]: 0.02653%
H2A: K36UN, % of peptide pool [6, 9]: 99.9735%
H3: K9AC, % of peptide pool [6, 9]: 0.7026%
H3: K9ME1, % of peptide pool [6, 9]: 34.4011%
H3: K9ME2, % of peptide pool [6, 9]: 29.5437%
H3: K9ME3, % of peptide pool [6, 9]: 3.1432%
H3: K9UN, % of peptide pool [6, 9]: 32.2094%
H3: K14AC, % of peptide pool [6, 9]: 29.7131%
H3: K14UN, % of peptide pool [6, 9]: 70.2869%
H3: K18AC, % of peptide pool [6, 9]: 13.9058%
H3: K18ME1, % of peptide pool [6, 9]: 0.1878%
H3: K18UN, % of peptide pool [6, 9]: 85.9064%
H3: K23AC, % of peptide pool [6, 9]: 21.6519%
H3: K23ME1, % of peptide pool [6, 9]: 0.01047%
H3: K23UN, % of peptide pool [6, 9]: 78.3377%
H3: K56AC, % of peptide pool [6, 9]: 0.09324%
H3: K56ME1, % of peptide pool [6, 9]: 0.04566%
H3: K56UN, % of peptide pool [6, 9]: 99.8611%
H3: K64AC, % of peptide pool [6, 9]: 0.01353%
H3: K64UN, % of peptide pool [6, 9]: 99.9865%
H3: K79AC, % of peptide pool [6, 9]: 0.03684%
H3: K79ME1, % of peptide pool [6, 9]: 12.2939%
H3: K79ME2, % of peptide pool [6, 9]: 5.57%
H3: K79ME3, % of peptide pool [6, 9]: 6.201%
H3: K79UN, % of peptide pool [6, 9]: 75.8979%
H3: K122AC, % of peptide pool [6, 9]: 0.03356%
H3: K122UN, % of peptide pool [6, 9]: 99.9664%
H3: Q19ME1, % of peptide pool [6, 9]: 0.003167%
H3: Q19UN, % of peptide pool [6, 9]: 99.9968%
H3: Q55ME1, % of peptide pool [6, 9]: 0.032%
H3: Q55UN, % of peptide pool [6, 9]: 99.968%
H3: R42ME2, % of peptide pool [6, 9]: 1.896%
H3: R42UN, % of peptide pool [6, 9]: 98.1041%
H3: R49ME2, % of peptide pool [6, 9]: 4.211%
H3: R49UN, % of peptide pool [6, 9]: 95.789%
H3R2UN: K4AC, % of peptide pool [6, 9]: 0.05876%
H3R2UN: K4ME1, % of peptide pool [6, 9]: 17.7716%
H3R2UN: K4ME2, % of peptide pool [6, 9]: 0.2231%
H3R2UN: K4ME3, % of peptide pool [6, 9]: 0.06844%
H3R2UN: K4UN, % of peptide pool [6, 9]: 81.8781%
H3R2UN: Q5ME1, % of peptide pool [6, 9]: 0.02831%
H3R2UN: Q5UN, % of peptide pool [6, 9]: 99.9717%
H3.1: K27AC, % of peptide pool [6, 9]: 2.414%
H3.1: K27ME1, % of peptide pool [6, 9]: 49.3304%
H3.1: K27ME2, % of peptide pool [6, 9]: 16.204%
H3.1: K27ME3, % of peptide pool [6, 9]: 1.814%
H3.1: K27UN, % of peptide pool [6, 9]: 30.2382%
H3.1: K36AC, % of peptide pool [6, 9]: 0.1106%
H3.1: K36ME1, % of peptide pool [6, 9]: 13.2702%
H3.1: K36ME2, % of peptide pool [6, 9]: 51.7553%
H3.1: K36ME3, % of peptide pool [6, 9]: 20.9267%
H3.1: K36UN, % of peptide pool [6, 9]: 13.9372%
H3.3: K27AC, % of peptide pool [6, 9]: 4.408%
H3.3: K27M, % of peptide pool [6, 9]: 0%
H3.3: K27ME1, % of peptide pool [6, 9]: 52.2182%
H3.3: K27ME2, % of peptide pool [6, 9]: 11.913%
H3.3: K27ME3, % of peptide pool [6, 9]: 2.973%
H3.3: K27UN, % of peptide pool [6, 9]: 28.488%
H3.3: K36AC, % of peptide pool [6, 9]: 1.2917%
H3.3: K36ME1, % of peptide pool [6, 9]: 11.4367%
H3.3: K36ME2, % of peptide pool [6, 9]: 56.7436%
H3.3: K36ME3, % of peptide pool [6, 9]: 20.5666%
H3.3: K36UN, % of peptide pool [6, 9]: 9.961%
H4: K5AC, % of peptide pool [6, 9]: 7.467%
H4: K5UN, % of peptide pool [6, 9]: 92.5334%
H4: K8AC, % of peptide pool [6, 9]: 11.3876%
H4: K8UN, % of peptide pool [6, 9]: 88.6124%
H4: K12AC, % of peptide pool ([6]; 2102EP cells, Mod Spec raw data, histone H4 K12 acetylated): 6.714 % of peptide pool
H4: K12UN, % of peptide pool ([6]; 2102EP cells, Mod Spec raw data, histone H4 K12 unmodified): 93.2862 % of peptide pool
H4: K16AC, % of peptide pool ([6]; 2102EP cells, Mod Spec raw data, histone H4 K16 acetylated): 46.6822 % of peptide pool
H4: K16UN, % of peptide pool ([6]; 2102EP cells, Mod Spec raw data, histone H4 K16 unmodified): 53.3178 % of peptide pool
H4: K20AC, % of peptide pool ([6]; 2102EP cells, Mod Spec raw data, histone H4 K20 acetylated): 14.5151 % of peptide pool
H4: K20ME2, % of peptide pool ([6]; 2102EP cells, Mod Spec raw data, histone H4 K20 dimethylated): 53.9426 % of peptide pool
H4: K20ME1, % of peptide pool ([6]; 2102EP cells, Mod Spec raw data, histone H4 K20 monomethylated): 5.183 % of peptide pool
H4: K20ME3, % of peptide pool ([6]; 2102EP cells, Mod Spec raw data, histone H4 K20 trimethylated): 2.177 % of peptide pool
H4: K20UN, % of peptide pool ([6]; 2102EP cells, Mod Spec raw data, histone H4 K20 unmodified): 24.182 % of peptide pool
change of histone modifications of the expected mode of action (Mod Spec) [6, 10]: slightly increased H3K4me2/me3 marks
off-target changes of histone modifications (Mod Spec) [6, 10]: decrease in H4K16ac and H4K20ac
DDIT4 Log2 fold change vs. DMSO [7, 11]: 1.60
EIF3CL Log2 fold change vs. DMSO [7, 11]: -1.72
SLC16A3 Log2 fold change vs. DMSO [7, 11]: 1.76
A1BG Log2 fold change vs. DMSO ([7]; unsorted data): -0.0173
A1CF Log2 fold change vs. DMSO ([7]; unsorted data): -2.00
A2M Log2 fold change vs. DMSO ([7]; unsorted data): 0.04
CREB, STAT3 and STAT5 phosphorylation and total levels of β-Catenin and HSP60 [8]: decreased
ERK1/2 phosphorylation [8]: decreased
p53 S15 phosphorylation [8]: increased

NC(=O)c1cccnc1 [Nicotinamide]
pEC50 [1]: < 4.30
pEC50 ([2]; Homo sapiens, GCT): < 4.30
pEC50 [3]: < 4.30
pEC50 [4]: < 4.30

NC(=O)C1CCCc2c1[nH]c1ccc(Cl)cc21 (stereo not shown) [Selisistat]
pEC50 [2]: < 4.30

COc1cc(-c2cn(C)c(=O)c3cnccc23)cc(OC)c1CN1CCN(CCCCCOc2cc(-c3scnc3C)ccc2CNC(=O)[C@@H]2C[C@@H](O)CN2C(=O)[C@@H](NC(=O)C2(F)CC2)C(C)(C)C)CC1 [VZ185]
pEC50 [1]: 4.30 to 6.00
EC50 / effective concentration in words [2]: low micromolar concentrations
pEC50 [3]: 4.30 to 6.00
pEC50 [4]: 4.30 to 6.00
